Reference: ChEMBL document CHEMBL4610059, “Isolation of triterpenoid saponins from Medicago sativa L. with neuroprotective activities” (2020)

Tests used:
Format in all cases: functional
Details in all cases: read-out: Activity
SH-SY5Y [1] = experiment: Neuroprotective activity against H2O2-induced cell death in human SH-SY5Y cells assessed as cell viability at 25 uM preincubated for 1 hr followed by H2O2 addition and measured after 4 hrs by CCK8 assay (reference value: 61.14 +/- 1.05%)
SH-SY5Y [2] = experiment: Neuroprotective activity against H2O2-induced cell death in human SH-SY5Y cells assessed as cell viability at 50 uM preincubated for 1 hr followed by H2O2 addition and measured after 4 hrs by CCK8 assay (reference value: 61.14 +/- 1.05%)
SH-SY5Y [3] = experiment: Neuroprotective activity against H2O2-induced cell death in human SH-SY5Y cells assessed as cell viability at 100 uM preincubated for 1 hr followed by H2O2 addition and measured after 4 hrs by CCK8 assay (reference value: 61.14 +/- 1.05%)

With COC(=O)[C@H]1O[C@@H](O[C@H]2[C@@H](O)C[C@@]3(C)[C@@H](CC[C@]4(C)[C@@H]3CC=C3[C@@H]5CC(C)(C)CC[C@]5(C(=O)O[C@@H]5O[C@H](CO)[C@@H](O)[C@H](O)[C@H]5O)CC[C@]34C)[C@]2(C)CO)[C@H](O)[C@@H](O)[C@@H]1O[C@@H]1OC[C@@H](O)[C@H](O)[C@H]1O the viability at 25 µM (SH-SY5Y [1]) was 62.1%, the viability at 50 µM (SH-SY5Y [2]) was 64.8% and the viability at 100 µM (SH-SY5Y [3]) was 73%.
Compound COC(=O)[C@H]1O[C@@H](O[C@H]2[C@@H](O)C[C@@]3(C)[C@@H](CC[C@]4(C)[C@@H]3CC=C3[C@@H]5CC(C)(C)CC[C@]5(C(=O)O[C@@H]5O[C@H](CO)[C@@H](O)[C@H](O)[C@H]5O)CC[C@]34C)[C@]2(C)CO)[C@H](O[C@@H]2O[C@H](CO)[C@H](O)[C@H](O)[C@H]2O)[C@@H](O)[C@@H]1O has a viability at 25 µM (SH-SY5Y [1]) of 60.7%, a viability at 50 µM (SH-SY5Y [2]) of 61.2% and a viability at 100 µM (SH-SY5Y [3]) of 67.1%.
Work on COC(=O)[C@H]1O[C@@H](O[C@H]2CC[C@@]3(C)[C@@H](CC[C@]4(C)[C@@H]3CC=C3[C@@H]5CC(C)(C)CC[C@]5(C(=O)O[C@@H]5O[C@H](CO)[C@@H](O)[C@H](O)[C@H]5O)CC[C@]34C)[C@]2(C)CO)[C@H](O[C@@H]2O[C@H](CO)[C@@H](O)[C@H](O)[C@H]2O[C@@H]2OC[C@H](O)[C@H](O)[C@H]2O)[C@@H](O)[C@@H]1O yielded a viability at 25 µM (SH-SY5Y [1]) of 61.9%, a viability at 50 µM (SH-SY5Y [2]) of 62.9% and a viability at 100 µM (SH-SY5Y [3]) of 63.1%.
Work on CC1(C)CC[C@]2(C(=O)O)CC[C@]3(C)C(=CC[C@@H]4[C@@]5(C)C[C@H](O)[C@H](O)[C@@](C)(C(=O)O)[C@@H]5CC[C@]43C)[C@@H]2C1 yielded a viability at 25 µM (SH-SY5Y [1]) of 60.1%, a viability at 50 µM (SH-SY5Y [2]) of 61.1% and a viability at 100 µM (SH-SY5Y [3]) of 62.2%.
Cc1c(C)c2c(c(C)c1O)CCC(C)(C(=O)O)O2 (stereo not given) [TROLOX] was tested, and the viability at 25 µM (SH-SY5Y [1]) was 70.2%, the viability at 50 µM (SH-SY5Y [2]) was 75.3% and the viability at 100 µM (SH-SY5Y [3]) was 78.2%.
